Reference: US20240247298A1, “METHOD FOR DETECTING LIVE LACTIC ACID BACTERIA WITH CARBOHYDRATE METABOLISM ACTIVITY” (KABUSHIKI KAISHA YAKULT HONSHA, priority 2021, published 2024)

Assays:
Assay type in all cases: cell-based, Lacticaseibacillus paracasei YIT 9029
LcS [1] = assay: cF excretion activity by addition of various saccharides of LcS (cFDA/PI double staining, flow cytometry); details: LcS from New Yakult suspended in 1% saccharide solution; cFDA 50 μM, PI 30 μM
Method: (§1) A beverage or food containing LcS (New Yakult: manufactured by Yakult Honsha Co., Ltd.) stored at about 4° C. within 16 days after production was diluted 10-fold with DPBS, then washed by centrifugation three times with DPBS, and the cell pellet was collected. The cell pellet obtained above was suspended in a 1% (V/W) solution in which a saccharide shown in Table 1 was dissolved in purified water. Further, the suspension was diluted with DPBS so that the cell concentration in the suspension was about 10^6 cells/mL, and cFDA was added thereto at a final concentration of 50 μM, and the resultant was left to stand at 30° C. for 15 minutes. Subsequently, propidium iodide was added thereto at a final concentration of 30 μM, and the resultant was left to stand at room temperature for 15 minutes, and then subjected to FACSAriaTM fusion (manufactured by Becton Dickinson) to measure the cF fluorescence intensity. A case where 90% or more of the total bacterial cells were counted as cF^- was determined to have cF excretion activity. In Table 1, those determined to have cF excretion activity are indicated by +, and those determined to have no cF excretion activity are indicated by -. The assimilation of a saccharide was examined using AP[…] (manufactured by bioMérieux Japan Co., Ltd.), which is a kit for identifying bacteria. A saccharide that can be assimilated by LcS is indicated by +, and a saccharide that cannot be assimilated by LCS is indicated by -.

LcS [2] = assay: Assimilation of a saccharide examined using API50cH; set-up: key: A saccharide that can be assimilated by LcS is indicated by +; a saccharide that cannot be assimilated by LCS is indicated by −; details: assimilation by LcS, API50cH kit
Method: as §1, with “The” for “A beverage or food containing LcS (New Yakult: manufactured by Yakult Honsha Co., Ltd.) stored at about 4° C. within 16 days after production was diluted 10-fold with DPBS, then washed by centrifugation three times with DPBS, and the cell pellet was collected. The”

LcS [3] = assay: Time course of cF accumulation and cF excretion of LcS
Method: A cultured bacterial solution of LcS in MRS medium was washed by centrifugation with Dulbecco's PBS (DPBS: manufactured by Thermo Fisher Scientific, Inc.), thereby removing saccharides. CFDA was added to the DPBS suspension of LcS obtained above at a final concentration of 50 μM (t=0), and cF accumulation from 0 to 20 minutes thereafter was examined by Gallios. In addition, to the DPBS suspension of LcS obtained above, CFDA was added at a final concentration of 50 μM, and the resultant was left to stand at 30° C. for 30 minutes to allow cF to accumulate in the bacterial cells. Subsequently, glucose was added at a final concentration of 10 mM (t=0), and cF excretion in 15 minutes thereafter was examined. Further, to the DPBS suspension of LcS obtained above, CFDA was added at a final concentration of 50 μM, and the resultant was left to stand at 30° C. for 30 minutes to allow cF to accumulate in the bacterial cells. Subsequently, glucose was added at a final concentration of 0.001 mM, 0.01 mM, 0.1 mM, or 1 mM (t=0), and cF excretion in 15 minutes thereafter was examined.

Molecule | cF excretion activity (LcS [1]) | Assimilability (LcS [2]) | also measured
O=CC[C@@H](O)[C@@H](O)[C@H](O)CO [2-deoxy-D-galactose] | − (those determined to have no cF excretion activity are indicated by −) |  | 
O=CC[C@@H](O)[C@H](O)[C@H](O)CO [2-deoxy-D-glucose] | − (those determined to have no cF excretion activity are indicated by −) |  | 
O=C[C@H](O)[C@@H](O)[C@@H](O)[C@H](O)CO [D-galactose] | + (A case where 90% or more of the total bacterial cells were counted as cF^− was determined to have cF excretion activity) | + | 
O=C[C@H](O)[C@@H](O)[C@H](O)[C@H](O)CO [D-glucose] | + (A case where 90% or more of the total bacterial cells were counted as cF^− was determined to have cF excretion activity) | + | cF excretion (LcS [3]; glucose final concentration 0.001 mM): significant delay in excretion; cF excretion (LcS [3]; glucose final concentration 0.01 mM): slight delay in excretion; time after which cF began to be rapidly excreted (LcS [3]; glucose final concentration 10 mM, LcS with cF accumulated in advance): about 3 minutes
O=C[C@@H](O)[C@@H](O)[C@H](O)[C@H](O)CO [D-mannose] | + (A case where 90% or more of the total bacterial cells were counted as cF^− was determined to have cF excretion activity) | + | 
O=C[C@H](O)[C@@H](O)[C@@H](O)CO [L-arabinose] | − (those determined to have no cF excretion activity are indicated by −) | − | 
C[C@H](O)[C@H](O)[C@@H](O)[C@@H](O)C=O [L-rhamnose] | − (those determined to have no cF excretion activity are indicated by −) | − | 
O=C(CO)[C@@H](O)[C@H](O)[C@@H](O)CO [L-sorbose] | − (those determined to have no cF excretion activity are indicated by −) | + | 
OC[C@H]1O[C@@H](O[C@H]2[C@H](O)[C@@H](O)C(O)O[C@@H]2CO)[C@H](O)[C@@H](O)[C@H]1O (stereo partly shown) [Lactose] | − (those determined to have no cF excretion activity are indicated by −) | + | 
OC[C@H]1O[C@@](CO)(O[C@H]2O[C@H](CO)[C@@H](O)[C@H](O)[C@H]2O)[C@@H](O)[C@@H]1O [sucrose] | − (those determined to have no cF excretion activity are indicated by −) | + | 
carboxyfluorescein diacetate [cFDA] |  |  | time after which cF accumulation amount was almost saturated (LcS [3]; cFDA 50 μM, no sugar, DPBS suspension of LcS): 20 min
